Experiments:
VEGF = VEGF immunohistochemical staining of gastric tumor tissue after local injection of 5-FU in nude mice; type: in vivo
Experimental: (§1) To observe changes in vascular tissue within gastric tumor masses after local injection of 5-FU, immunohistochemical staining for CD31 and VEGF was performed.
(§2) For the control group, gastric tumor tissue was implanted in the dorsal region of nude mice, and when the tumor reached a size of 1 cm×1 cm, it was excised and used. For the 5-FU injection group, 5 mg of 5-FU was injected at the base of the tumor when the implanted tumor reached a size of 1 cm×1 cm. […] The immunohistochemical staining method was as follows.
(§3) To reduce endogenous peroxidase activity present in blood cells within the tissue, the slides were treated at room temperature with 3% H2O2 in methanol for 15 minutes. […] The slides were washed twice with TBST (Tris-buffered saline with 0.1% Tween® 20 Detergent) for 3 minutes each, followed by incubation at room temperature for 15 minutes with Detection Kit Reagent 1 (HRP Polymer-anti-mouse/rabbit IgG). […] For counterstaining, Harris hematoxylin was applied.
(§4) For result analysis, the proportion of the area stained for CD31-positive blood vessels and VEGF-positive cancer cells relative to the total tissue area was calculated, and a comparison was made between the control group and the 5-FU locally injected group.

[1] = system: subcutaneous muscle layer; experiment: Pathological changes in the subcutaneous muscle layer after subcutaneous injection of 5-FU (H&E staining); type: in vivo, nude mice; set-up: key to pathological change score (degeneration, necrosis, inflammation, fibrosis): 0: absent; 1: mild; 2: moderate; 3: severe; conditions: 5 mg pH 8.4 5-FU, after 24 hours
Experimental: To observe pathological changes in the surrounding tissue after injecting 5 mg of pH 8.4 5-FU near the tumor, the drug was locally administered to nude mice. After 24 hours, tissues, including muscle layers, were collected and subjected to H&E staining to examine degeneration, necrosis, inflammation, and fibrosis in the muscle layer. The extent of each pathological change was scored as follows: 0=absent, 1=mild, 2=moderate, 3=severe, and the results are shown in FIG. 10A and FIG. 10b. FIG. 10A presents observations at 40× magnification, while FIG. 10b presents observations at 100× magnification.

CD31 = CD31 immunohistochemical staining of gastric tumor tissue after local injection of 5-FU in nude mice; type: in vivo
Experimental: as §1, §2, §3, §4

Structure (SMILES): O=c1[nH]cc(F)c(=O)[nH]1 [5-FU, 5-fluorouracil]
- Immuno-positive area (%) (VEGF; VEGF, proportion of total tissue area, 5 mg 5-FU, one week after injection, control group 0.38): 0.10%
- VEGF secretion levels (VEGF; compared to control group): decreased
- VEGF stained area (VEGF; compared to control group, FIG. 7): appeared smaller
- pathological change score (degeneration, necrosis, inflammation, fibrosis) [1]: 0
- pathological changes in the subcutaneous muscle layer at the injection site [1]: no pathological changes were observed
- distribution of necrotic tissue in tumor mass (CD31; 5 mg 5-FU, one week, compared to control group, FIG. 6): the distribution of necrotic tissue increased
- Immuno-positive area (%) (CD31; CD31, proportion of total tissue area, 5 mg 5-FU, one week after injection, control group 0.87): 0.54%
- stained area of CD31 and VEGF (CD31; CD31 and VEGF, compared to control group, Table 1): appeared smaller
- vascular distribution within the tumor mass (CD31; compared to control group): reduced
- stained area ratio of CD31 (CD31; compared to control group, FIG. 6): lower
